Target: T1, human EGF-receptor kinase (Homo sapiens, UniProt P00533)
T1 construct: GST; made in house; host or cells: Sf9 insect cells (Baculovirus expression system)
Experiment: Inhibition of human EGF-receptor kinase (ELISA, pEY substrate)
Format: biochemical
Conditions: cytoplasmic tyrosine kinase domain (Met664-Ala1186) as GST fusion protein; poly(EY)/bio-pEY substrate; 30 minutes at ambient temperature
Experimental: The inhibition of human EGF-receptor kinase was determined using the cytoplasmic tyrosine kinase domain (methionine 664 to alanine 1186 based on the sequence published in Nature 309 (1984), 418). For this the protein was expressed in Sf9 insect cells as GST fusion protein using the Baculovirus expression system.
The enzyme activity was measured in the presence or absence of the test compounds in serial dilutions. The polymer pEY (4:1) obtained from SIGMA was used as the substrate. Biotinylated pEY (bio-pEY) was added as the tracer substrate. 100 μl of reaction solution contained 10 μl of the inhibitor in 50% DMSO, 20 μl of the substrate solution (200 mM HEPES pH 7.4, 50 mM magnesium acetate, 2.5 mg/ml poly(EY), 5 μg/ml bio-pEY) and 20 μl of enzyme preparation. The enzyme reaction was started by the addition of 50 μl of a 100 μM ATP solution in 10 mM of magnesium chloride. The dilution of the enzyme preparation was adjusted so that the incorporation of phosphate in the bio-pEY was linear in terms of time and quantity of enzyme. The enzyme preparation was diluted in 20 mM HEPES pH 7.4, 1 mM EDTA, 130 mM common salt, 0.05% Triton X-100, 1 mM DTT and 10% glycerol.
The enzyme assays were carried out at ambient temperature over a period of 30 minutes and ended by the addition of 50 μl of a stopping solution (250 mM EDTA in 20 mM HEPES pH 7.4). 100 μl were placed on a streptavidin-coated microtitre plate and incubated for 60 minutes at ambient temperature. Then the plate was washed with 200 μl of a wash solution (50 mM Tris, 0.05% Tween 20). After the addition of 100 μl of an HRPO-labelled anti-PY antibody (PY20H Anti-PTyr:HRP made by Transduction Laboratories, 250 ng/ml) the preparation was incubated for 60 minutes. Then the microtitre plate was washed three times with 200 μl of wash solution. The samples were then combined with 100 μl of a TMB-peroxidase solution (A:B=1:1, Kirkegaard Perry Laboratories). After 10 minutes the reaction was stopped. The extinction was measured at OD450nm with an ELISA reader. All the results were measured three times. […]

T1 sequence (P00533 688-1210): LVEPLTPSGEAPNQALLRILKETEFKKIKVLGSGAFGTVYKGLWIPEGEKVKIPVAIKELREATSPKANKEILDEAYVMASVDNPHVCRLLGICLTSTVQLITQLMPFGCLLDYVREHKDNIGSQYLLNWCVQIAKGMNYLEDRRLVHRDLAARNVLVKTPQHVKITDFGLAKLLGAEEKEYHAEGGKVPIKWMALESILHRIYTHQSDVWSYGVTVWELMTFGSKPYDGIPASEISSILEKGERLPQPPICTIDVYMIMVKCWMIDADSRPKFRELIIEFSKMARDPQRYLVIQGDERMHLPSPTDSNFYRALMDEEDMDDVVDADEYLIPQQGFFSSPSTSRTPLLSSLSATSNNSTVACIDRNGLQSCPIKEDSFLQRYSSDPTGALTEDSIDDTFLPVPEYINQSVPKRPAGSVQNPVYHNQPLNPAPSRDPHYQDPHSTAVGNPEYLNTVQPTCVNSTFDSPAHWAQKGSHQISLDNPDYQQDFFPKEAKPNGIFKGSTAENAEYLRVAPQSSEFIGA

Structure (SMILES) | IC50
O=C(/C=C/CN1C[C@@H]2C[C@H]1CO2)Nc1cc2c(Nc3ccc(F)c(Cl)c3)ncnc2cc1OCC1CC1 [Example 1, 4-[(3-chloro-4-fluoro-phenyl)amino]-6-{[4-((1S,4S)-2-oxa-5-aza-bicyclo[2.2.1]hept-5-yl)-1-oxo-2-buten-1-yl]amino}-7-cyclopropylmethoxy-quinazoline] | 1.5 nM
O=C(/C=C/CN1C[C@H]2C[C@@H]1CO2)Nc1cc2c(Nc3ccc(F)c(Cl)c3)ncnc2cc1O[C@H]1CCOC1 [Example 2(2), 4-[(3-chloro-4-fluoro-phenyl)amino]-6-{[4-((1R,4R)-2-oxa-5-aza-bicyclo[2.2.1]hept-5-yl)-1-oxo-2-buten-1-yl]amino}-7-[(S)-(tetrahydrofuran-3-yl)oxy]-quinazoline] | 0.5 nM
O=C(/C=C/CN1CC2CCC(C1)O2)Nc1cc2c(Nc3ccc(F)c(Cl)c3)ncnc2cc1O[C@H]1CCOC1 [Example 2(3), 4-[(3-chloro-4-fluoro-phenyl)amino]-6-{[4-(8-oxa-3-aza-bicyclo[3.2.1]oct-3-yl)-1-oxo-2-buten-1-yl]amino}-7-[(S)-(tetrahydrofuran-3-yl)oxy]-quinazoline] | 2 nM
